Patent US7351692B2, “Method and composition for potentiating the antipyretic action of a nonopioid analgesic” (The Board of Trustees of the University of Illinois, priority 2002, dated 2008)
Non-standard residues stand in square brackets, D forms with d. Residues, ends and D or L forms follow the SMILES beside them.

Tests used:
[1] = Body weight of mice before drug and at end of experiment; type: in vivo; conditions: before drug vs 7 hours after acetaminophen, acetaminophen 300 mg/kg s.c., BQ123 3 μg i.c.v.
Protocol: (§1) Male Swiss-Webster mice weighing 25 to 30 grams (Harlan, Indianapolis, Ind.) were housed four per cage in a room having a controlled ambient temperature (23±1° C.), humidity (50±10%), and twelve-hour light/dark cycle (6:00 a.m. to 6:00 p.m.). Food and water were available ad libitum. The experiments were-performed after the mice were acclimated to this environment for at least four days.
For i.c.v. administration of the endothelin antagonist BQ123, a mouse was grasped firmly by the loose skin behind the head and the skin was pulled taut. The site of injection was 2 mm from either side of the midline drawn through the anterior base of the ears. A 27 gauge sterile hypodermic needle attached to a 10 μL sterile Hamilton syringe was inserted perpendicularly through the skull into the brain, and vehicle (sterile saline) or BQ123 was delivered to the ventricle of the mouse brain (see T. J. Haley et al., Brit. J. Pharmacol., 12(12), (1957)). BQ123 (3 μg) or vehicle was administered i.c.v. and volume of drug injection was 5 μL. […]
The body weight of all mice was measured, and no change in body weight between various groups of mice was observed (FIG. 2). Body weight was measured before administration of any drug and at the end of the experiment (i.e., 7 hours after the administration of acetaminophen).

[2] = Measurement of tail-flick latency (thermal stimulation); type: in vivo; conditions: mice; for effect on tail flick latency (analgesia), drug alone: acetaminophen 300 mg/kg s.c. or BQ123 3 μg i.c.v.
Protocol: as §1
(§2) For i.c.v. administration of the endothelin antagonist BQ123, a mouse was grasped firmly by the loose skin behind the head and the skin was pulled taut. The site of injection was 2 mm from either side of the midline drawn through the anterior base of the ears. A 27 gauge sterile hypodermic needle attached to a 10 μL sterile Hamilton syringe was inserted perpendicularly through the skull into the brain, and vehicle (sterile saline) or BQ123 was delivered to the ventricle of the mouse brain (see T. J. Haley et al., Brit. J. Pharmacol., 12(12), (1957)). BQ123 (3 μg) or vehicle was administered i.c.v. and volume of drug injection was 5 μL. Vehicle or BQ123 pretreatment was performed 30 minutes prior to administration of acetaminophen (300 mg/kg s.c.).
(§3) The mice were divided into the following four groups (N=5 in each group): group I (P+V) received vehicle (V) (saline 5 μl, i.c.v.) and placebo (P) (vehicle 100 μl/kg, s.c.); group 2 (P+BQ) received BQ123 (BQ) (3 μg. i.c.v. in a volume of 5 μl of saline) and placebo (P) (vehicle 100 μl/kg, s.c.); group 3 (A+V) received vehicle (V) (saline 5 μl, i.c.v.) and acetaminophen (A) (300 mg/kg, s.c. in a volume of 100 μl/kg); and group 4 (A+BQ) received BQ123 (BQ) (3 μg, i.c.v. in a volume of 5 μl) and acetaminophen (A) (300 mg/kg, s.c. in a volume of 100 μl/kg). Vehicle or BQ123 pretreatment was performed 30 minutes prior to administration of acetaminophen (FIG. 1).
An analgesic response was determined by the tail flick method (C. Advocat et al., Brain Ref., 55(2), pp. 251-258 (1991); H. N. Bhargava, General Pharmacology, 28(1), pp. 61-64 (1997)). The tail flick latencies to thermal stimulation (focused light) were determined before and 30, 60, 90, 120, 180, 210, 240, 270, 300, and 360 minutes after injection of acetaminophen. The basal tail flick latency was about 2 seconds. A thermal stimulation cutoff time of 10 seconds was used to prevent damage to the tail of the animal. The analgesic response in each mouse was expressed as mean±SEM.

[3] = Measurement of body temperature (colonic temperature, telethermometer); type: in vivo; conditions: for change in body temperature, drug alone: acetaminophen 300 mg/kg s.c. or BQ123 3 μg i.c.v., over 360 minutes
Protocol: as §1, §2, §3
The change in body temperature in response to acetaminophen (300 mg/kg) was determined (Bhargava, 1997). The colonic temperature of each mouse was recorded before and at various times after the injection of acetaminophen over a period of 360 minutes using a telethermometer. Body temperature data was expressed as mean±SEM.

[4] = biological target: T1, ETA receptor (Rattus norvegicus, UniProt P26684); conditions: cited from earlier work
T1 construct: host or cells: whole animal, central (intracerebroventricular) administration
T1 sequence (P26684 21-426): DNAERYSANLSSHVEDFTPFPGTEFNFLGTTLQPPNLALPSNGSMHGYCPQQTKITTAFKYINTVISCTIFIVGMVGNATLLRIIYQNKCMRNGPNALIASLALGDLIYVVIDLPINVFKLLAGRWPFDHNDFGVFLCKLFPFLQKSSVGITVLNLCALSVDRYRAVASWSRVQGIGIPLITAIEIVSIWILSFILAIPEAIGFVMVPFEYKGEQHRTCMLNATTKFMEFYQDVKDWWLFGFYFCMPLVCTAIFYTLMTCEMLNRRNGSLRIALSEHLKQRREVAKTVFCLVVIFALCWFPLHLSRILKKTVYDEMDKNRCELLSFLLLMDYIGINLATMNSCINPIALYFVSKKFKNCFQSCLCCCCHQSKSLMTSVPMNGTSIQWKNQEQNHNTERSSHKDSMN

[5] = daily dose of 6000 mg acetaminophen, suppositories, five days; cited from earlier work
[6] = biological target: COX-1 (Homo sapiens, UniProt P23219); conditions: in vitro; cited from earlier work
[7] = test system: prostaglandin synthesis; conditions: in vivo; cited from earlier work
[8] = biological target: T2, COX-2 (Homo sapiens, UniProt P35354); conditions: in vitro; cited from earlier work
T2 sequence (P35354 18-604): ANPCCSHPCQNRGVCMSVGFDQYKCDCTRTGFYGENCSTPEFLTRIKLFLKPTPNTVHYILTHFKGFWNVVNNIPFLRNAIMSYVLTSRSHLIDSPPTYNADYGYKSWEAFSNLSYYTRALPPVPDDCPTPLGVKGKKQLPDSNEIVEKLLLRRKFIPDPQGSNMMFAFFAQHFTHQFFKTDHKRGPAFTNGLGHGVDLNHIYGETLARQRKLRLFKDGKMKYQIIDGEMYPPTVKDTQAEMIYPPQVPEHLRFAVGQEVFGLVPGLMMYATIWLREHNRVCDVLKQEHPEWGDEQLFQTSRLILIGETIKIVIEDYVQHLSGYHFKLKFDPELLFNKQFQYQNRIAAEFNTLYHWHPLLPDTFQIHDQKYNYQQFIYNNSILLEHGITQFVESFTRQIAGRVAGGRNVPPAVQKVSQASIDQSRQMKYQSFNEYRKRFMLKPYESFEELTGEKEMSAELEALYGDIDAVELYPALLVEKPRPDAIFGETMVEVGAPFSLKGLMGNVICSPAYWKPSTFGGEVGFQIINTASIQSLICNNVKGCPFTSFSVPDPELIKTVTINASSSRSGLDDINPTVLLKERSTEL

[9] = acetaminophen 3900 mg/d; afebrile patients with acute stroke; cited from earlier work
[10] = 4000 mg acetaminophen daily (n=20); placebo group 36.4%; p=0.014; cited from earlier work
[11] = BQ123 3 μg i.c.v. 30 minutes prior to acetaminophen 300 mg/kg s.c.

Sequence of COX-1 (P23219 24-599): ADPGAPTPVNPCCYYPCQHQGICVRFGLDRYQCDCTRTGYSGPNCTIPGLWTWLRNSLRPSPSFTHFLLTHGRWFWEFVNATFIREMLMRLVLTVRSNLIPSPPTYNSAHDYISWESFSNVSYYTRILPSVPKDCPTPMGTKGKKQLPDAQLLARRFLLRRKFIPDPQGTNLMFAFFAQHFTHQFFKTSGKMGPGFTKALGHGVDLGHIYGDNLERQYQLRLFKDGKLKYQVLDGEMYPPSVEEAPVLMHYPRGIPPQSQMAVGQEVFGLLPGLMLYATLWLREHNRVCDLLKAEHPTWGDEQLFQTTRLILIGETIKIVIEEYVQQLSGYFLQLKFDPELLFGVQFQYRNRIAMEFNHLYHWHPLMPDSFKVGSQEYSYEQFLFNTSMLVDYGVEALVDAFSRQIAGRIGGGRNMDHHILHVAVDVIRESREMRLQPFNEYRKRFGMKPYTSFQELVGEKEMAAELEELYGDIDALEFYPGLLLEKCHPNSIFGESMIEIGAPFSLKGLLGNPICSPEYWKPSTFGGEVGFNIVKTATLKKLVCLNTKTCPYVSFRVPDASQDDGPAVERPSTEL

| SMILES | acute effect on body weight [1] | effect of BQ123 on analgesic effect of acetaminophen [2, 11] | effect on tail flick latency (analgesia), drug alone ([2]; control about 2 seconds) | duration of hypothermic effect of acetaminophen in BQ123 pretreated mice [3, 11] | effect of BQ123 on hypothermic effect of acetaminophen ([3]; mice, BQ123 3 μg i.c.v. 30 minutes prior to acetaminophen 300 mg/kg s.c.) | change in body temperature, drug alone ([3]; mice) | effect on BP and HR per se ([4]; administered in the lateral cerebral ventricle) | effect on clonidine induced hypotension and bradycardia ([4]; pretreatment) | body temperature shortly after ischemic stroke [5] | inhibition of COX-1 [6] | reduction of prostaglandin synthesis [7] | tail flick latency reached ([2]; acetaminophen 300 mg/kg s.c., cutoff time 10 seconds, control about 2 seconds) | duration of significant increase in tail flick latencies ([2]; after acetaminophen 300 mg/kg s.c.) | inhibition of COX-2 [8] | core body temperature (CBT) [9] | duration of hypothermia after acetaminophen ([3]; mice, acetaminophen 300 mg/kg s.c., vehicle pretreatment) | patients with fever of greater than 37.5° C. [10] [%] |
| --- | --- | --- | --- | --- | --- | --- | --- | --- | --- | --- | --- | --- | --- | --- | --- | --- | --- |
| CC(C)C[C@@H]1NC(=O)[C@@H](C(C)C)NC(=O)[C@@H]2CCCN2C(=O)[C@@H](CC(=O)O)NC(=O)[C@@H](Cc2c[nH]c3ccccc23)NC1=O [BQ123, cyclo (-D-Trp-D-Asp-Pro-D-Val-Leu-)] (cyclo(L[dW][dD]P[dV])) | neither acetaminophen nor BQ123 produced any acute effect on body weight | not affected | did not produce any significant effect on tail flick latency | more than six | significantly potentiated | did not produce any significant change in body temperature | – | – | – | – | – | – | – | – | – | – | – |
| Cc1noc(NS(=O)(=O)c2cccc3c(N(C)C)cccc23)c1C [BMS-182874] | – | – | – | – | – | – | did not affect BP and HR per se | significantly blocked | – | – | – | – | – | – | – | – | – |
| CC(=O)Nc1ccc(O)cc1 [acetaminophen] | – | – | produced significant analgesia | – | – | produced a significant hypothermia | – | – | small, but potentially beneficial, decrease in body temperature | weakly | markedly | more than 10 seconds | three | weakly | small reduction in CBT | about three | 5.0 |
